Experimental data as given in EP4512427A1, “ANTIBODY-DRUG CONJUGATES BASED ON MOLECULAR GLUE DEGRADERS AND USES THEREOF” (Mablink Bioscience, priority 2023, dated 2025).

Tests used:
[1] = tested on: NCI-N87; experiment: In vitro cytotoxicity assay (MTT); type: cell-based, human; details: Homo sapiens, NCI-N87, 144 h, 6 days incubation
Experimental: (§1) In vitro cytotoxicity of compounds of the disclosure was assessed on several cancerous human cell lines. Cells were plated in 96-well plates at an appropriate density depending on the cell line (between 1000 and 10 000 cells/well in 100µL of appropriate culture media) and incubated at 37°C for 24 hours. Serial dilutions of the tested compound previously dissolved in culture media (50µL) were added, and incubation was carried at 37°C out for 6 days. MTT (5mg/mL in PBS, 20µL, Sigma-Aldrich) was added into the wells, and incubation was continued for 1 to 4 hours at 37°C. Culture media was then carefully removed, and well content was homogeneously dissolved with acidified isopropanol. Absorbance values were measured on a microplate reader using a wavelength of 570 nm (with a reference wavelength of 690 nm). The IC50 concentration values compared to untreated control cells were determined using inhibition dose response curve fitting (GraphPad Prism 9). Exatecan mesylate (cat#HY-13631A) and CR8 (CAS# 294646-77-8; cat#HY-18340) were purchased from MedChemExpress (China).

[2] = tested on: MDA-MB-453; experiment: In vitro cytotoxicity assay (MTT); type: cell-based, human; details: Homo sapiens, MDA-MB-453, 144 h, 6 days incubation
Experimental: as §1

[3] = tested on: SKBR-3; experiment: In vitro cytotoxicity assay (MTT); type: cell-based, human; details: Homo sapiens, SK-BR-3, 144 h, 6 days incubation
Experimental: as §1

[4] = tested on: BT-474; experiment: In vitro cytotoxicity assay (MTT); type: cell-based, human; details: Homo sapiens, BT-474, 144 h, BT-474; 6 days incubation, MTT
Experimental: as §1

[5] = tested on: JIMT-1; experiment: In vitro cytotoxicity assay (MTT); type: cell-based, human; details: Homo sapiens, 144 h, 6 days incubation
Experimental: as §1

[6] = tested on: MDA-MB-231; experiment: In vitro cytotoxicity assay (MTT); type: cell-based, human; details: Homo sapiens, MDA-MB-231, 144 h, 6 days incubation
Experimental: as §1

[7] = target: T1, BCRP (Homo sapiens, UniProt Q9UNQ0); experiment: BCRP efflux substrate assay in MDCK-BCRP; type: in vitro ADME; details: for efflux ratio at 60 min, 5 µM / Papp A→B at 60 min, 5 µM / Papp B→A at 60 min, 5 µM: dog, pH 7.4, MDCK-BCRP; for efflux ratio at 60 min, 5 µM: read-out: Efflux ratio B/A; for Papp A→B at 60 min, 5 µM: read-out: Papp A (donor) to B (acceptor); for Papp B→A at 60 min, 5 µM: read-out: Papp B (acceptor) to A (donor); for BCRP efflux potential: in words
T1 construct: host or cells: MDCK-BCRP (Preadyport)
T1 sequence (Q9UNQ0 1-655): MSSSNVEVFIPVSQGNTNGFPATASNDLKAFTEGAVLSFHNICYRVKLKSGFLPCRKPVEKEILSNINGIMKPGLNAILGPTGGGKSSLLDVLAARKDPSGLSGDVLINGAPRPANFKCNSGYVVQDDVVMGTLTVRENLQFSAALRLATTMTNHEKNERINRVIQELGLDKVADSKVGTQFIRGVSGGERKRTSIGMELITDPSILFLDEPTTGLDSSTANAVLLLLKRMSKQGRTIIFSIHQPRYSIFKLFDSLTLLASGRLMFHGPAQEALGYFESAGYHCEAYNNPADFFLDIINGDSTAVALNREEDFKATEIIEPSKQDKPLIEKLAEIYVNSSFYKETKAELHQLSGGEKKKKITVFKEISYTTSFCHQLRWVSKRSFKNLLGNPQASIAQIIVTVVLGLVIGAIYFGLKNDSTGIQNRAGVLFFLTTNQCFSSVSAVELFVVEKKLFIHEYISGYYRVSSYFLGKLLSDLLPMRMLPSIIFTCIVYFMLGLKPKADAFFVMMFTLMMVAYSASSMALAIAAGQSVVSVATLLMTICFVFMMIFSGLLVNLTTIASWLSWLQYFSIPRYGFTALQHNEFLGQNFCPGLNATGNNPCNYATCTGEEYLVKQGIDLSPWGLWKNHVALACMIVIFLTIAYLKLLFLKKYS
Experimental: (§2) MDR1 and BCRP efflux substrate assays were conducted in MDCK-MDR1 and MDCK-BCRP in vitro models (Preadyport™, Solvo Biotech) at Symeres (Nederland). Compound of the invention (donor well concentration of 5µM) were incubated in cell monolayer 24-transwell Preadyport system, using Preadyport recommended pH 7.4 assay buffer (donor and receiver wells). After 60 min of incubation (no shaking), samples are collected and suspended into triple volume of 66% cold acetonitrile. Samples are stored at -20°C until thawed, centrifuged and analyzed by LC-MS. Quinidine was used a positive control for the MDR1 assay, and prazosin was used as a positive control for the BCRP assay. Exatecan was used as a control, known not to be an MDR1 substrate. Residual DMSO content from compounds stock solutions was below 1% (v/v). The assay was performed in duplicate. The quantification of test compounds in donor or receptor compartment is conducted using relative LC/MS peak areas (samples of initial incubation solutions are used as a single point calibrator), without any spiked standard samples. The data is used for estimating apparent permeability (Papp) and calculation of efflux ratio.

[8] = target: T2, MDR1 (Homo sapiens, UniProt P08183); experiment: MDR1 efflux substrate assay in MDCK-MDR1; type: in vitro ADME; details: for Papp A→B at 60 min, 5 µM / Papp B→A at 60 min, 5 µM / efflux ratio at 60 min, 5 µM: dog; for Papp A→B at 60 min, 5 µM / Papp B→A at 60 min, 5 µM: MDCK-MDR1, 5µM, pH 7.4; for Papp A→B at 60 min, 5 µM: read-out: Papp A (donor) to B (acceptor); for Papp B→A at 60 min, 5 µM: read-out: Papp B (acceptor) to A (donor); for efflux ratio at 60 min, 5 µM: MDCK-MDR1, pH 7.4, read-out: Efflux ratio B/A; for MDR1 efflux potential: in words
T2 construct: host or cells: MDCK-MDR1 (Preadyport)
T2 sequence (P08183 whole entry): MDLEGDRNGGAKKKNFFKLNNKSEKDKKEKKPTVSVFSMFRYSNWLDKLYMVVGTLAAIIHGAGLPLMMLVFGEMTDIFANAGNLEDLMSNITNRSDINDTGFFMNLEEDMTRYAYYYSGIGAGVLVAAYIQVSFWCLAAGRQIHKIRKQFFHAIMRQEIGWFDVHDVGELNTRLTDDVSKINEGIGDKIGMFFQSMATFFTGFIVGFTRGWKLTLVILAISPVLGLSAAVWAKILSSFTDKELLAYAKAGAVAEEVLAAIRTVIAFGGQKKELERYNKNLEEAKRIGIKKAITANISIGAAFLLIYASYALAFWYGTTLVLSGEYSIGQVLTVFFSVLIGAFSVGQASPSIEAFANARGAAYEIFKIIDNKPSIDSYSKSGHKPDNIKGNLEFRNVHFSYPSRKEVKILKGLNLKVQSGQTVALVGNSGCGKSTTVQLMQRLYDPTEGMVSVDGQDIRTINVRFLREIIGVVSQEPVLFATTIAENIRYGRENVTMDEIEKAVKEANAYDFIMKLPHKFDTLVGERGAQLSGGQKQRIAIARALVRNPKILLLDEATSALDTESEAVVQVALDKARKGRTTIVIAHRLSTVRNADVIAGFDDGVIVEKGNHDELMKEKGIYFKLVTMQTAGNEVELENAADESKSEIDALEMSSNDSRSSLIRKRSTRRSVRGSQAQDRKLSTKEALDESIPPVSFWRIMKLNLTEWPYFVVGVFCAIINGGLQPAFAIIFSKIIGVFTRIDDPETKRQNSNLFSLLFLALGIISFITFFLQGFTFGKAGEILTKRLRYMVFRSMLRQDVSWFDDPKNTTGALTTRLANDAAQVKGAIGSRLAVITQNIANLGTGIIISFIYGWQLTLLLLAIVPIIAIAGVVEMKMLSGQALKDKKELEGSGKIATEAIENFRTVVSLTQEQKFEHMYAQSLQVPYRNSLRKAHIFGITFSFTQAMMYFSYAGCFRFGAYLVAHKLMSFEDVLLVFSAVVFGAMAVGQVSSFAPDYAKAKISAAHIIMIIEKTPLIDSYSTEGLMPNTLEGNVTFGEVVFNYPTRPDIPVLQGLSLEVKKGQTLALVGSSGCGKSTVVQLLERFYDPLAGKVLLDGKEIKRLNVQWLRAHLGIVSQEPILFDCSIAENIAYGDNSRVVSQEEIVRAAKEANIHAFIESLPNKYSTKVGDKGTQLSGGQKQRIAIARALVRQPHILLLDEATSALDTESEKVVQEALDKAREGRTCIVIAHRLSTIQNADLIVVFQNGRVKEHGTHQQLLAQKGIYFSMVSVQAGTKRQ
Experimental: as §2

[9] = in vitro; details: PAMPA, pH 7.4
[10] = tested on: HT-29; experiment: In vitro cytotoxicity assay (MTT); type: cell-based; details: Homo sapiens, 144 h, 6 days incubation
Experimental: as §1

[11] = tested on: MCF-7; experiment: In vitro cytotoxicity assay (MTT); type: cell-based; details: Homo sapiens, MCF7, 144 h, 6 days incubation
Experimental: as §1

[12] = tested on: BXPC3; experiment: In vitro cytotoxicity assay (MTT); type: cell-based; details: Homo sapiens, BXPC-3, 144 h, 6 days incubation
Experimental: as §1

[13] = tested on: KB-1; experiment: In vitro cytotoxicity assay (MTT); type: cell-based; details: Homo sapiens, KB16, 144 h, 6 days incubation
Experimental: as §1

SMILES | IC50 [1] [nM] | IC50 [2] [nM] | IC50 [3] [nM] | IC50 [4] [nM] | IC50 [5] [nM] | IC50 [6] [nM] | efflux ratio at 60 min, 5 µM [7] | Papp A→B at 60 min, 5 µM [7] [×10⁻⁶ cm/s] | Papp B→A at 60 min, 5 µM [7] [×10⁻⁶ cm/s] | Papp A→B at 60 min, 5 µM [8] [×10⁻⁶ cm/s] | Papp B→A at 60 min, 5 µM [8] [×10⁻⁶ cm/s] | Papp at 5 h, 50 µM [9] [×10⁻⁶ cm/s] | IC50 [10] [nM] | IC50 [11] [nM] | IC50 [12] [nM] | efflux ratio at 60 min, 5 µM [8] | BCRP efflux potential [7] | MDR1 efflux potential [8] | IC50 [13] [nM]
NCC1CCN(c2nc(NCc3ccc(-c4ccccn4)cc3)n3ncc(Br)c3n2)CC1 [Compound 2560] | 3.29 | 1.61 | 4.33 | 5.92 | 0.6 | 1.92 | 4.94 | 7.53 | 37.2 | < 0.7 | 26.6 | 135 | – | – | – | – | – | – | –
Brc1cnn2c(NCc3ccc(-c4ccccn4)cc3)nc(NC[C@@H]3CCCN3)nc12 [Compound 2571] | 4.27 | 3.55 | 7.75 | 2.68 | 1.53 | 2.22 | 12.9 | 7.09 | 91.4 | 0.59 | 64.2 | 149 | 1.12 | 79.6 | 5.43 | 108 | – | – | –
NCCCCNc1nc(NCc2ccc(-c3ccccn3)cc2)n2ncc(Br)c2n1 [Compound 2585] | 15.4 | 26.8 | 38.9 | 1.77 | 7.86 | 24.7 | 27.9 | 1.75 | 49 | < 3.4 | 34 | < 0.3 | – | – | – | – | – | – | –
CNCCN(C)c1nc(NCc2ccc(-c3ccccn3)cc2)n2ncc(Br)c2n1 [Compound 2605] | 4.5 | 3.66 | 7.46 | 2.76 | 1.22 | 1.54 | 1.31 | 30.9 | 40.5 | 4.05 | 54.5 | 112 | 0.33 | 3.7 | 2.91 | 13.4 | low level | low level | –
N[C@H]1CCN(c2nc(NCc3ccc(-c4ccccn4)cc3)n3ncc(Br)c3n2)C1 [Compound 2655] | 1.95 | 0.97 | 0.14 | 1.57 | – | 0.54 | 3.47 | 11.1 | 38.7 | 5.13 | 26.9 | 125 | – | – | – | 5.25 | low level | low level | 1.66
N[C@H]1CCC[C@@H]1Nc1nc(NCc2ccc(-c3ccccn3)cc2)n2ncc(Br)c2n1 [Compound 2668] | 0.84 | 1.78 | 0.2 | 2.16 | – | 0.82 | 6.99 | 10.2 | 71 | 1.36 | 56.4 | 164 | – | – | – | 41.6 | – | – | 2.99
N[C@H]1CCC[C@@H](Nc2nc(NCc3ccc(-c4ccccn4)cc3)n3ncc(Br)c3n2)C1 [Compound 2670] | 2.53 | 9.19 | 0.72 | 5.77 | – | 2.67 | 5.93 | 5.02 | 29.8 | < 0.5 | 23.5 | 132 | – | – | – | – | – | – | –
CC[C@@]1(O)C(=O)OCc2c1cc1n(c2=O)Cc2c-1nc1cc(F)c(C)c3c1c2[C@@H](N)CC3 [Exatecan, reference compound] | – | – | – | – | – | – | 12.3 | 1.43 | 17.6 | 2.28 | 16.7 | 58 | – | – | – | 7.31 | – | – | –
